Tests used:
[1] = test system: RAW264.7; test: Inhibition of LPS-induced NO production in mouse RAW264.7 cells at 25 uM pretreated for 20 mins before LPS challenge measured after 18 hrs post LPS challenge by spectrophotometry; assay type: functional
[2] = Cytotoxicity against mouse RAW264.7 cells assessed as cell viability at 25 uM after 18 hrs by CCK-8 assay; assay type: cell-based; conditions: read-out: Activity
[3] = test system: RAW264.7; test: Inhibition of LPS-induced NO production in mouse RAW264.7 cells pretreated for 20 mins before LPS challenge measured after 18 hrs post LPS challenge by spectrophotometry; assay type: functional, cell-based
[4] = test system: RAW264.7; test: Cytotoxicity against mouse RAW264.7 cells assessed as cell viability after 18 hrs by CCK-8 assay; assay type: cell-based; conditions: RAW264.7, 18 h
[5] = test system: RAW264.7; test: Cytotoxicity against mouse RAW264.7 cells assessed as cell viability up to 50 uM after 18 hrs by CCK-8 assay; assay type: cell-based; conditions: raw264.7, 18 h
[6] = test system: RAW264.7; test: Inhibition of LPS-induced NO production in mouse RAW264.7 cells at 50 uM pretreated for 20 mins before LPS challenge measured after 18 hrs post LPS challenge by spectrophotometry; assay type: functional
[7] = test system: RAW264.7; test: Inhibition of LPS-induced NO production in mouse RAW264.7 cells at 12.5 uM pretreated for 20 mins before LPS challenge measured after 18 hrs post LPS challenge by spectrophotometry; assay type: functional
[8] = test system: RAW264.7; test: Inhibition of LPS-induced NO production in mouse RAW264.7 cells at 100 uM pretreated for 20 mins before LPS challenge measured after 18 hrs post LPS challenge by spectrophotometry; assay type: functional

Structure (SMILES) | inhibition at 25 µM [1] | viability at 18 h, 25 µM [2] | other results
O=C(OCCC1CCCCC1)[C@H]1[C@H](c2ccc(O)cc2)[C@H](C(=O)OCCC2CCCCC2)[C@H]1c1ccc(O)cc1 | 19.1% | 100% | 
O=C(OC1CCCCC1)[C@H]1[C@H](c2ccc(O)cc2)[C@H](C(=O)OC2CCCCC2)[C@H]1c1ccc(O)cc1 | 76% | 67.8% | IC50 [3]: 16.4 µM; IC50 [4]: 33 µM
O=C(OC1CCCCCC1)[C@H]1[C@H](c2ccc(O)cc2)[C@H](C(=O)OC2CCCCCC2)[C@H]1c1ccc(O)cc1 | 16% | 100% | 
O=C(OCC1CCCO1)[C@H]1[C@H](c2ccc(O)cc2)[C@H](C(=O)OCC2CCCO2)[C@H]1c1ccc(O)cc1 (stereo not given in full) | 10.2% | 96% | 
O=C(OC1CCOCC1)[C@H]1[C@H](c2ccc(O)cc2)[C@H](C(=O)OC2CCOCC2)[C@H]1c1ccc(O)cc1 | 18% | 100% | 
CC(C)(C)C1CCC(OC(=O)[C@H]2[C@H](c3ccc(O)cc3)[C@H](C(=O)OC3CCC(C(C)(C)C)CC3)[C@H]2c2ccc(O)cc2)CC1 (stereo not given in full) | 0% | 100% | 
CC(C)[C@@H]1CC[C@@H](C)C[C@H]1OC(=O)[C@H]1[C@H](c2ccc(O)cc2)[C@H](C(=O)O[C@@H]2C[C@H](C)CC[C@H]2C(C)C)[C@H]1c1ccc(O)cc1 | 72% | 98% | IC50 [3]: 17.5 µM; Activity [5]: Non-toxic; IC50 [4]: 60.3 µM
CC(C)[C@H]1CC[C@H](C)C[C@@H]1OC(=O)[C@H]1[C@H](c2ccc(O)cc2)[C@H](C(=O)O[C@H]2C[C@@H](C)CC[C@@H]2C(C)C)[C@H]1c1ccc(O)cc1 | 17.4% | 90% | 
O=C(OCC1CCCCC1)[C@H]1[C@H](c2ccc(O)cc2)[C@H](C(=O)OCC2CCCCC2)[C@H]1c1ccc(O)cc1 | 46.9% | 37% | IC50 [3]: 29.1 µM; IC50 [4]: 17.9 µM
CCC[C@H]1CC[C@H]([C@H]2CC[C@H](OC(=O)[C@H]3[C@H](c4ccc(O)cc4)[C@H](C(=O)O[C@H]4CC[C@H]([C@H]5CC[C@H](CCC)CC5)CC4)[C@H]3c3ccc(O)cc3)CC2)CC1 | 0% | 100% | 
CCC[C@H]1CC[C@H]([C@H]2CC[C@@H](OC(=O)[C@H]3[C@H](c4ccc(O)cc4)[C@H](C(=O)O[C@H]4CC[C@@H]([C@H]5CC[C@H](CCC)CC5)CC4)[C@H]3c3ccc(O)cc3)CC2)CC1 | 0% | 100% | 
O=C(OCC12CC3CC(CC(C3)C1)C2)[C@H]1[C@H](c2ccc(O)cc2)[C@H](C(=O)OCC23CC4CC(CC(C4)C2)C3)[C@H]1c1ccc(O)cc1 | 27.8% | 98% | 
CC(C)OCCOC(=O)[C@H]1[C@H](c2ccc(O)cc2)[C@H](C(=O)OCCOC(C)C)[C@H]1c1ccc(O)cc1 | 22% | 100% | 
CCCOCCOC(=O)[C@H]1[C@H](c2ccc(O)cc2)[C@H](C(=O)OCCOCCC)[C@H]1c1ccc(O)cc1 | 23.6% | 100% | 
CCCCOCCOC(=O)[C@H]1[C@H](c2ccc(O)cc2)[C@H](C(=O)OCCOCCCC)[C@H]1c1ccc(O)cc1 | 45.8% | 95% | IC50 [3]: 32.6 µM; IC50 [4]: 44.5 µM
COCCOCCOC(=O)[C@H]1[C@H](c2ccc(O)cc2)[C@H](C(=O)OCCOCCOC)[C@H]1c1ccc(O)cc1 | 21.9% | 100% | 
COCCOCCOCCOC(=O)[C@H]1[C@H](c2ccc(O)cc2)[C@H](C(=O)OCCOCCOCCOC)[C@H]1c1ccc(O)cc1 | 11.9% | 100% | 
CCOCCOCCOCCOC(=O)[C@H]1[C@H](c2ccc(O)cc2)[C@H](C(=O)OCCOCCOCCOCC)[C@H]1c1ccc(O)cc1 | 15.7% | 100% | 
O=C(OCCF)[C@H]1[C@H](c2ccc(O)cc2)[C@H](C(=O)OCCF)[C@H]1c1ccc(O)cc1 | 13% | 100% | 

Structure (SMILES) | inhibition at 25 µM [1] | viability at 18 h, 25 µM [2] | other results
O=C(OCC(F)(F)F)[C@H]1[C@H](c2ccc(O)cc2)[C@H](C(=O)OCC(F)(F)F)[C@H]1c1ccc(O)cc1 | 65.3% | 78% | IC50 [3]: 20.8 µM; IC50 [4]: 38.5 µM
O=C(OCC(F)(F)C(F)F)[C@H]1[C@H](c2ccc(O)cc2)[C@H](C(=O)OCC(F)(F)C(F)F)[C@H]1c1ccc(O)cc1 | 15.7% | 100% | 
O=C(OC(C(F)(F)F)C(F)(F)F)[C@H]1[C@H](c2ccc(O)cc2)[C@H](C(=O)OC(C(F)(F)F)C(F)(F)F)[C@H]1c1ccc(O)cc1 | 55% | 32.6% | IC50 [3]: 22.6 µM; IC50 [4]: 17.6 µM
CSCCOC(=O)[C@H]1[C@H](c2ccc(O)cc2)[C@H](C(=O)OCCSC)[C@H]1c1ccc(O)cc1 | 24.4% | 100% | 
O=C(OCCI)[C@H]1[C@H](c2ccc(O)cc2)[C@H](C(=O)OCCI)[C@H]1c1ccc(O)cc1 | 49.9% | 98% | 
C=C(C)COC(=O)[C@H]1[C@H](c2ccc(O)cc2)[C@H](C(=O)OCC(=C)C)[C@H]1c1ccc(O)cc1 | 27.9% | 100% | 
CCC/C=C/COC(=O)[C@H]1[C@H](c2ccc(O)cc2)[C@H](C(=O)OC/C=C/CCC)[C@H]1c1ccc(O)cc1 | 72.3% | 40% | IC50 [3]: 17.6 µM; IC50 [4]: 19.3 µM
CC(C)=CCC/C(C)=C\COC(=O)[C@H]1[C@H](c2ccc(O)cc2)[C@H](C(=O)OC/C=C(/C)CCC=C(C)C)[C@H]1c1ccc(O)cc1 | 42.6% | 56% | 
CC(C)=CCC/C(C)=C/COC(=O)[C@H]1[C@H](c2ccc(O)cc2)[C@H](C(=O)OC/C=C(\C)CCC=C(C)C)[C@H]1c1ccc(O)cc1 | 33.9% | 80% | 
C=C(C)C1CC=C(COC(=O)[C@H]2[C@H](c3ccc(O)cc3)[C@H](C(=O)OCC3=CCC(C(=C)C)CC3)[C@H]2c2ccc(O)cc2)CC1 (stereo not given in full) | 36.1% | 78% | 
C#CCCOC(=O)[C@H]1[C@H](c2ccc(O)cc2)[C@H](C(=O)OCCC#C)[C@H]1c1ccc(O)cc1 | 28.3% | 100% | 
C#CCOCCOC(=O)[C@H]1[C@H](c2ccc(O)cc2)[C@H](C(=O)OCCOCC#C)[C@H]1c1ccc(O)cc1 | 13.5% | 100% | 
CC(C)(C)[Si](C)(C)Oc1ccc(/C=C/C(=O)O)cc1 | 0% |  | inhibition at 50 µM [6]: 2.2%; inhibition at 12.5 µM [7]: 0%; inhibition at 100 µM [8]: 6.5%
O=C(O)[C@H]1[C@H](c2ccc(O)cc2)[C@H](C(=O)O)[C@H]1c1ccc(O)cc1 | 5.5% | 100% | 
O=C(OCC1CC1)[C@H]1[C@H](c2ccc(O)cc2)[C@H](C(=O)OCC2CC2)[C@H]1c1ccc(O)cc1 | 33.9% | 95% | 
O=C(OC1CCC1)[C@H]1[C@H](c2ccc(O)cc2)[C@H](C(=O)OC2CCC2)[C@H]1c1ccc(O)cc1 | 55% | 62.6% | IC50 [3]: 19.8 µM; IC50 [4]: 32.3 µM
O=C(OC1CCCC1)[C@H]1[C@H](c2ccc(O)cc2)[C@H](C(=O)OC2CCCC2)[C@H]1c1ccc(O)cc1 | 62.1% | 58% | IC50 [3]: 21.1 µM; IC50 [4]: 31.2 µM
O=C(O)/C=C/c1ccc(O)cc1 [COUMARIC ACID] | 0% |  | inhibition at 50 µM [6]: 6.5%; inhibition at 12.5 µM [7]: 0%; inhibition at 100 µM [8]: 13.2%
N=C(N)NN [PIMAGEDINE] | 56% |  | IC50 [3]: 18.7 µM; inhibition at 50 µM [6]: 71%

— ChEMBL document CHEMBL2346512, “Inhibitory effect of 4,4'-dihydroxy-α-truxillic acid derivatives on NO production in lipopolysaccharide-induced RAW 264.7 macrophages and exploration of structure-activity relationships” (Bioorg Med Chem Lett, 2013)
